System: OF1 mice
Assay: Maximal electroshock test (MES Test)
Assay type: in vivo
Conditions: Mus musculus, po; 50 mg/kg, p.o., pre-treatment time −1 h; read-out: %-Protection
In short: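 Readout: fraction of five OF1 mice protected, meaning seizure duration 3 s or less, after a 50 Hz, 18 mA, 0.2 s temporal-electrode shock. Dosing was oral, usually 50 mg/kg, one hour beforehand; ED50 values were derived and post-shock blood taken for exposure.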

Compound | responders at 50 mg/kg
CC(=O)N(n1c(=O)[nH]c2cc(C(F)F)c(-c3ccnn3C(C)C)cc2c1=O)S(C)(=O)=O [Example 6.01, N-Acetyl-N-[7-difluoromethyl-6-(2-isopropyl-2H-pyrazol-3-yl)-2,4-dioxo-1,4-dihydro-2H-quinazolin-3-yl]-methanesulfonamide] | 40%
CCc1cc2[nH]c(=O)n(N(C(=O)OC)S(C)(=O)=O)c(=O)c2cc1-c1ccnn1C [Example 2.07, Methanesulfonyl-[7-ethyl-6-(2-methyl-2H-pyrazol-3-yl)-2,4-dioxo-1,4-dihydro-2H-quinazolin-3-yl]-carbamic acid methyl ester] | 100%
CC(C)C(=O)N(n1c(=O)[nH]c2cc(C(F)(F)F)c(-n3ccnc3)cc2c1=O)S(C)(=O)=O [Example 4.05, N-(6-Imidazol-1-yl-2,4-dioxo-7-trifluoromethyl-1,4-dihydro-2H-quinazolin-3-yl)-N-isobutyryl-methanesulfonamide] | 80%
CCOC(=O)N(n1c(=O)[nH]c2cc(C(C)C)c(-c3ccnn3C)cc2c1=O)S(C)(=O)=O [Example 3.19, [7-Isopropyl-6-(2-methyl-2H-pyrazol-3-yl)-2,4-dioxo-1,4-dihydro-2H-quinazolin-3-yl]-methanesulfonyl-carbamic acid ethyl ester] | 100%
CC(C)COC(=O)N(n1c(=O)[nH]c2cc(C(F)(F)F)c(-c3ccnn3C(C)C)cc2c1=O)S(C)(=O)=O [Example 5.09, [6-(2-Isopropyl-2H-pyrazol-3-yl)-2,4-dioxo-7-trifluoromethyl-1,4-dihydro-2H-quinazolin-3-yl]-methanesulfonyl-carbamic acid isobutyl ester] | 40%
Cc1nccn1-c1cc2c(=O)n(NS(C)(=O)=O)c(=O)[nH]c2cc1C(F)(F)F [Example 7.0, N-[6-(2-Methyl-imidazol-1-yl)-2,4-dioxo-7-trifluoromethyl-1,4-dihydro-2H-quinazolin-3-yl]-methanesulfonamide] | 0%
CCOC(=O)N(n1c(=O)[nH]c2cc(C(F)(F)F)c(-n3ccnc3C)cc2c1=O)S(C)(=O)=O [Example 7.01, Methanesulfonyl-[6-(2-methyl-imidazol-1-yl)-2,4-dioxo-7-trifluoromethyl-1,4-dihydro-2H-quinazolin-3-yl]-carbamic acid ethyl ester] | 40%
Cc1nccn1-c1cc2c(=O)n(N(C(=O)OCC(C)C)S(C)(=O)=O)c(=O)[nH]c2cc1C(F)(F)F [Example 7.04, Methanesulfonyl-[6-(2-methyl-imidazol-1-yl)-2,4-dioxo-7-trifluoromethyl-1,4-dihydro-2H-quinazolin-3-yl]-carbamic acid isobutyl ester] | 40%

Same assay, conditions: Mus musculus, po; Dose: 15 mg/kg, p.o. (footnote c), pre-treatment time −1 h; read-out: %-Protection

Compound | responders at 15 mg/kg
COC(=O)N(n1c(=O)[nH]c2cc(C(C)C)c(-c3ccnn3C)cc2c1=O)S(C)(=O)=O [Example 3.05, [7-Isopropyl-6-(2-methyl-2H-pyrazol-3-yl)-2,4-dioxo-1,4-dihydro-2H-quinazolin-3-yl]-methanesulfonyl-carbamic acid methyl ester] | 60%

Same assay, conditions: Mus musculus, po; Dose: 25 mg/kg, p.o. (footnote b), pre-treatment time −1 h; read-out: %-Protection

Compound | responders at 25 mg/kg
CC(=O)N(n1c(=O)[nH]c2cc(C(F)F)c(-c3ccnn3C(C)C)cc2c1=O)S(C)(=O)=O [Example 6.01, N-Acetyl-N-[7-difluoromethyl-6-(2-isopropyl-2H-pyrazol-3-yl)-2,4-dioxo-1,4-dihydro-2H-quinazolin-3-yl]-methanesulfonamide] | 20%

Same assay, conditions: Mus musculus; dose of up to 50 mg/kg, p.o., 1 hour prior to induction of convulsions; read-out: %-Protection

Compound | responders at 50 mg/kg
CCCC(=O)N(n1c(=O)[nH]c2cc(CC)c(-c3ccnn3CC)cc2c1=O)S(C)(=O)=O [N-Butyryl-N-[7-ethyl-6-(2-ethyl-2H-pyrazol-3-yl)-2,4-dioxo-1,4-dihydro-2H-quinazolin-3-yl]-methanesulfonamide] | 0%
CCCCCOC(=O)N(n1c(=O)[nH]c2cc(C(F)(F)F)c([C@H]3CCCO3)cc2c1=O)S(C)(=O)=O [Methanesulfonyl-[(R)-2,4-Dioxo-6-tetrahydro-furan-2-yl-7-trifluoromethyl-1,4-dihydro-2H-quinazolin-3-yl]carbamic acid pentyl ester] | 0%
CCc1cc2[nH]c(=O)n(N(C(C)=O)S(C)(=O)=O)c(=O)c2cc1-c1ccnn1CC [N-Acetyl-N-[7-ethyl-6-(2-ethyl-2H-pyrazol-3-yl)-2,4-dioxo-1,4-dihydro-2H-quinazolin-3-yl]-methanesulfonamide] | 0%
